Test results published in article PMC11882969 (Nature Communications, 2025).
Several values for one entry are separate records, joined by “and”; a condition that tells them apart may be missing. Equal entries are not always repeated. Where two headings read alike, the source gives them in different places.

Experiments:
hCB1 [1] = target: T1, hCB1 (Homo sapiens, UniProt P21554); assay: bioSensAll ebBRET signaling profiling, hCB1; assay type: cell-based; parameters: host or cells: HEK293SL cells, transient PEI transfection; settings: for RE, relative efficacy: vs CP-55,940; for EC50: read-out: EC50 [95% CI]; for Emax: normalized to CP-55,940
hCB1 [2] = target: T1, hCB1; assay: Lance Ultra cAMP accumulation assay, CHO cells; assay type: cell-based; parameters: expressed in transfected cells; settings: for normalised cAMP response, concentration-response (Figure2f), replicate values: log[Compound;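 on all read-outs here: human CB1R stably expressed in CHO cells, ligands co-incubated with forskolin at room temperature, read-out is lowering of forskolin-stimulated cAMP accumulation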
Method: The inhibition of forskolin-stimulated cAMP accumulation assays was carried out using PerkinElmer’s Lance Ultra cAMP kit following the manufacturer’s protocol. In brief, CHO cells stably expressing human CB1R (provided by the lab of Laura Bohn) were harvested by incubation with Versene (ThermoFisher Scientific, Waltham, MA) for 10 min, washed once with Hank’s Balanced Salt Solution, and resuspended in stimulation buffer at ~200 cells/μL density. The ligands at eight different concentrations (0.001-10,000 nM) in stimulation buffer (5 μL) containing forskolin (2 μM final concentration) were added to a 384-well plate followed by the cell suspension (5 μL; ~1000 cells/well). The plate was incubated for 30 min at room temperature. Eu-cAMP tracer (5 μL) and Ulight-anti-cAMP (5 μL) working solutions were then added to each well, and the plate was incubated at room temperature for an additional 60 min. Results were measured on a Perkin-Elmer EnVision plate reader. The EC50 values were determined by nonlinear regression analysis using Graphpad Prism 9 and are expressed as the mean of three experiments, each performed in triplicate.

T1 sequence (P21554 whole entry): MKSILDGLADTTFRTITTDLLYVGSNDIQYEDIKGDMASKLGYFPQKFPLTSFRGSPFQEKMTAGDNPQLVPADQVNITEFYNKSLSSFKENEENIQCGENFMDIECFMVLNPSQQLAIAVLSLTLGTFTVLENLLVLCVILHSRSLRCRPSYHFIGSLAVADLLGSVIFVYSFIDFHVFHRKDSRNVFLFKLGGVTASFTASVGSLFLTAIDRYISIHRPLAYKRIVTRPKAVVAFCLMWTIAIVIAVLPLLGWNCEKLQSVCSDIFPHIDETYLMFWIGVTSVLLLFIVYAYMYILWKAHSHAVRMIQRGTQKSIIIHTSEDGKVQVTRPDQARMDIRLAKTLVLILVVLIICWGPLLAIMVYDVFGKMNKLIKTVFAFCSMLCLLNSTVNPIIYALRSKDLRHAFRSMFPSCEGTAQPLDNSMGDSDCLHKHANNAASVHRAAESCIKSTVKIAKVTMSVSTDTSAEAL

With `COC(=O)[C@@](C)(NC(=O)c1cc(C)n(-c2cccc(C(F)(F)F)c2)n1)c1cccs1` [‘1350] the “Barr2+GRK2 hCB1” value (hCB1 [1]; Log [Compound] (M) -8.22186) was 55.5534 and 36.0388 and 57.0671, the “G13 hCB1” value (hCB1 [1]; Log [Compound] (M) -8.22186) was 68.4414 and 35.9312 and the “G15 hCB1” value (hCB1 [1]; Log [Compound] (M) -8.22186) was 108.751 and 98.1326. The “Gi1 hCB1” value (hCB1 [1]; Log [Compound] (M) -8.22186) was 92.6788 and 89.3236 and 99.6444, the “Gi2 hCB1” value (hCB1 [1]; Log [Compound] (M) -8.22186) was 103.598 and 95.5013 and the “GoB hCB1” value (hCB1 [1]; Log [Compound] (M) -8.22186) was 98.7737 and 93.6765. For the same molecule, the “Gq hCB1” value (hCB1 [1]; Log [Compound] (M) -8.22186) was 1076, the “Gs hCB1” value (hCB1 [1]; Log [Compound] (M) -8.22186) was 6277 and the “Gz hCB1” value (hCB1 [1]; Log [Compound] (M) -8.22186) was 86.1167 and 125.84. The “Barr2+GRK2 hCB1” value (hCB1 [1]; Log [Compound] (M) -8.39794) was 29.9976 and 37.6342 and 37.3728, the “G15 hCB1” value (hCB1 [1]; Log [Compound] (M) -8.39794) was 102.447 and 90.505 and the “Gi1 hCB1” value (hCB1 [1]; Log [Compound] (M) -8.39794) was 89.9355 and 81.3893 and 90.8265. For the same molecule, the “Gi2 hCB1” value (hCB1 [1]; Log [Compound] (M) -8.39794) was 93.2678 and 81.238, the “GoB hCB1” value (hCB1 [1]; Log [Compound] (M) -8.39794) was 91.7888 and 85.5166 and 90.3229 and the “Gq hCB1” value (hCB1 [1]; Log [Compound] (M) -8.39794) was 1079. For the same molecule, the “Gs hCB1” value (hCB1 [1]; Log [Compound] (M) -8.39794) was 6774, the “Gz hCB1” value (hCB1 [1]; Log [Compound] (M) -8.39794) was 90.3591 and 90.0229 and the “G13 hCB1” value (hCB1 [1]; Log [Compound] (M) -8.68787) was 53.1584 and 35.4081. The “G15 hCB1” value (hCB1 [1]; Log [Compound] (M) -8.68787) was 102.996 and 87.3488, the “Gi1 hCB1” value (hCB1 [1]; Log [Compound] (M) -8.68787) was 91.5518 and 80.8983 and 96.1797 and the “Gi2 hCB1” value (hCB1 [1]; Log [Compound] (M) -8.68787) was 100.616 and 73.0934. The “GoB hCB1” value (hCB1 [1]; Log [Compound] (M) -8.68787) was 87.9026 and 94.3015 and 102.463, the “Gq hCB1” value (hCB1 [1]; Log [Compound] (M) -8.68787) was 1093 and the “Gs hCB1” value (hCB1 [1]; Log [Compound] (M) -8.68787) was 6188. For the same molecule, the “Gz hCB1” value (hCB1 [1]; Log [Compound] (M) -8.68787) was 71.525 and 105.899, the “G13 hCB1” value (hCB1 [1]; Log [Compound] (M) -9.15521) was 29.8642 and 17.8839 and the “G15 hCB1” value (hCB1 [1]; Log [Compound] (M) -9.15521) was 73.5984 and 77.2225. The “Gi1 hCB1” value (hCB1 [1]; Log [Compound] (M) -9.15521) was 81.1718 and 69.1157 and 80.6507, the “Gi2 hCB1” value (hCB1 [1]; Log [Compound] (M) -9.15521) was 77.4138 and 61.2639 and the “GoB hCB1” value (hCB1 [1]; Log [Compound] (M) -9.15521) was 71.2656 and 63.2418 and 86.0488. For the same molecule, the “Gq hCB1” value (hCB1 [1]; Log [Compound] (M) -9.15521) was 979, the “Gs hCB1” value (hCB1 [1]; Log [Compound] (M) -9.15521) was 6053 and the “Gz hCB1” value (hCB1 [1]; Log [Compound] (M) -9.15521) was 50.0303 and 83.0974. The “G15 hCB1” value (hCB1 [1]; Log [Compound] (M) -9.61989) was 46.4936 and 49.8683, the “Gi1 hCB1” value (hCB1 [1]; Log [Compound] (M) -9.61989) was 46.5026 and 32.8966 and 52.9951 and the “Gi2 hCB1” value (hCB1 [1]; Log [Compound] (M) -9.61989) was 46.1296 and 39.0463. For the same molecule, the “GoB hCB1” value (hCB1 [1]; Log [Compound] (M) -9.61989) was 41.2683 and 36.2447 and 42.156, the “Gq hCB1” value (hCB1 [1]; Log [Compound] (M) -9.61989) was 993 and the “Gs hCB1” value (hCB1 [1]; Log [Compound] (M) -9.61989) was 6331. For the same molecule, the “G15 hCB1” value (hCB1 [1]; Log [Compound] (M) -10.0969) was 22.2784 and 20.2785, the “Gi2 hCB1” value (hCB1 [1]; Log [Compound] (M) -10.0969) was 20.3201 and 12.6408 and the “GoB hCB1” value (hCB1 [1]; Log [Compound] (M) -10.0969) was 15.6017 and 12.0427 and 18.9365. For the same molecule, the “Gq hCB1” value (hCB1 [1]; Log [Compound] (M) -10.0969) was 1040, the “Gs hCB1” value (hCB1 [1]; Log [Compound] (M) -10.0969) was 6351 and the “G15 hCB1” value (hCB1 [1]; Log [Compound] (M) -10.5529) was 10.1469 and 8.811. For the same molecule, the “Gq hCB1” value (hCB1 [1]; Log [Compound] (M) -10.5529) was 1032, the “Gs hCB1” value (hCB1 [1]; Log [Compound] (M) -10.5529) was 6578 and the “Gq hCB1” value (hCB1 [1]; Log [Compound] (M) -11.0177) was 1054. The “Gs hCB1” value (hCB1 [1]; Log [Compound] (M) -11.0177) was 6308, the “Gq hCB1” value (hCB1 [1]; Log [Compound] (M) -11.4949) was 1050 and the “Gs hCB1” value (hCB1 [1]; Log [Compound] (M) -11.4949) was 6446. For the same molecule, the “Gq hCB1” value (hCB1 [1]; Log [Compound] (M) -11.9208) was 1129, the “Gs hCB1” value (hCB1 [1]; Log [Compound] (M) -11.9208) was 6648 and the “Gq hCB1” value (hCB1 [1]; Log [Compound] (M) -12.3979) was 1059. For the same molecule, the “Gs hCB1” value (hCB1 [1]; Log [Compound] (M) -12.3979) was 6648, the “Gq hCB1” value (hCB1 [1]; Log [Compound] (M) -12.8861) was 1070 and the “Gs hCB1” value (hCB1 [1]; Log [Compound] (M) -12.8861) was 6918. The “pEC50 [95% CI]” value (hCB1 [1]; hCB1 G13) was 9.08 [8.6 – 9.6], the “RE, relative efficacy” value (hCB1 [1]; hCB1 G13) was 1.64 and the “RE, relative efficacy” value (hCB1 [1]; hCB1 G15) was 1.14. The “pEC50 [95% CI]” value (hCB1 [1]; hCB1 Gi1) was 9.63 [9.5 – 9.7], the “RE, relative efficacy” value (hCB1 [1]; hCB1 Gi1) was 1.98 and the “RE, relative efficacy” value (hCB1 [1]; hCB1 Gi2) was 1.89. The “RE, relative efficacy” value (hCB1 [1]; hCB1 GoB) was 2.24, the “RE, relative efficacy” value (hCB1 [1]; hCB1 Gz) was 0.77 and the “RE, relative efficacy” value (hCB1 [1]; hCB1 ßarr2+GRK2) was 1.16. For the same molecule, the EC50 (hCB1 [1]; hCB1 Barr2 + GRK2) was 2.2 nM, the EC50 (hCB1 [1]; hCB1 G13) was 0.83 nM and the EC50 (hCB1 [1]; hCB1 G15) was 0.22 nM. It also gave an EC50 (hCB1 [1]; hCB1 Gi1) of 0.23 nM, an EC50 (hCB1 [1]; hCB1 Gi2) of 0.28 nM and an EC50 (hCB1 [1]; hCB1 GoB) of 0.29 nM. It also gave an EC50 (hCB1 [1]; hCB1 Gz) of 0.35 nM, an Emax (hCB1 [1]; read-out: Emax [95% CI], hCB1 Barr2 + GRK2) of 63% and an Emax (hCB1 [1]; read-out: Emax [95% CI], hCB1 G13) of 56%. The Emax (hCB1 [1]; read-out: Emax [95% CI], hCB1 G15) was 99%, the Emax (hCB1 [1]; read-out: Emax [95% CI], hCB1 Gi1) was 92% and the Emax (hCB1 [1]; read-out: Emax [95% CI], hCB1 Gi2) was 95%. For the same molecule, the Emax (hCB1 [1]; read-out: Emax [95% CI], hCB1 GoB) was 98%, the Emax (hCB1 [1]; read-out: Emax [95% CI], hCB1 Gz) was 94% and the “Lance Ultra cAMP pEC50” value (hCB1 [2]) was 8.8 [8.4 – 9.2]. The Emax (hCB1 [2]; CHO) was 77%, the “agonism, inhibition of forskolin-stimulated cAMP” value (hCB1 [2]; hCB1-expressing cells, in words) was “agonists” and the “normalised cAMP response, concentration-response (Figure2f), replicate values” (“normalised cAMP response” below) (hCB1 [2]; M] -5) was -4.858 and 11.635 and 22.5761 and 22.3192 and 16.0513. For the same molecule, the “normalised cAMP response” value (hCB1 [2]; M] -6) was 0.02957 and 13.0032 and 24.8348 and 23.4809 and 19.7873, the “normalised cAMP response” value (hCB1 [2]; M] -7) was -1.176 and 11.2775 and 31.1162 and 23.9321 and 21.5823 and the “normalised cAMP response” value (hCB1 [2]; M] -8) was 4.023 and 6.478 and 36.7172 and 38.802 and 36.5532. For the same molecule, the “normalised cAMP response” value (hCB1 [2]; M] -9) was 33.486 and 46.5508 and 80.4827 and 77.993 and 76.9862, the “normalised cAMP response” value (hCB1 [2]; M] -10) was 57.5574 and 85.1374 and 96.2204 and 101.985 and 96.4953 and the “normalised cAMP response” value (hCB1 [2]; M] -11) was 67.5707 and 85.3574 and 95.6722 and 97.0187 and 98.6477. The “normalised cAMP response” value (hCB1 [2]; M] -12) was 65.6738 and 93.8429 and 115.239 and 106.805 and 95.2537.
